# Results: patent publication US9220794B2, “Two-photon fluorescent probes for imaging of total sulfide in live cell and tissue, and quantitative estimation of total sulfide concentration using the same” (Korea University Research and Business Foundation, priority 2013, dated 2015)
# Tests used:
# [1] = test system: HeLa cells; test: Two-photon excited fluorescence spectra of labeled HeLa cells; type: cell-based, human
# Description: Accordingly, it can be seen that HEPES/EtOH (1/1) has polarity similar to that of the cellular environment.
# This confirms again that HEPES/EtOH (1/1) is a good model of the cellular environment and HS^− can be detected by TPM using the compound of [Chemical Formula 2-6].
# HeLa human cervical carcinoma cells were acquired from the ATCC (Manassas, Va., USA). The cells were cultured in DMEM (WelGene, Inc., Seoul, Korea) supplemented with heat-inactivated 10% FBS (WelGene), penicillin (100 units/mL) and streptomycin ([…]).
# For labeling, the growth medium was removed and replaced with DMEM without FBS. The cells were incubated with the compound of [Chemical Formula 2-6] ([…]) for 30 minutes, washed 3 times with FBS-free DMEM and imaged.
# The TPM images were obtained with the DM IRE2 microscope (Leica) by exciting the probes with a mode-locked titanium-sapphire laser source (Coherent Chameleon, 90 MHz, 200 fs) set at a wavelength of 750 nm and an output power of 1380 mW, which corresponded to an average power of approximately 2 mW in the focal plane.
# [2] = test system: HeLa cells; test: Photostability of TPEF intensity in labeled HeLa cells; type: cell-based, human; conditions: continuous radiation of fs-pulses for 60 minutes
# From the text: These findings confirm that the compound of [Chemical Formula 2-6] can measure the total sulfide concentration in living cells by the kinetic method with minimum interference from cytotoxicity and photostability.
# [3] = Selectivity for sulfide: ratiometric response (F2/F1) in the presence of various analytes
# Description: The ratio of fluorescence intensities (F2/F1) measured at a short wavelength (F1) and a long wavelength (F2) at 0, 60 and 120 min is shown. All the data were obtained at 37° C. in HEPES buffer. Excitation wavelengths for one-photon and two-photon processes were 370 nm (short wavelength) and 750 nm (long wavelength), respectively.
# To test whether the compound of [Chemical Formula 2-6] can selectively detect HS^− over other biologically relevant species, the ratiometric response of the compound of [Chemical Formula 2-6] was determined in the presence of various analytes.
# [4] = Kinetic studies in solution: reaction of the probe with sulfide
# From the text: The reaction between the compound of [Chemical Formula 2-6] […] For example, the compound of [Chemical Formula 2-6] was synthesized from the reaction of the compound of [Chemical Formula 2-5] and HS^−. Also, precipitation of sulfur or sulfide was reported in the reaction between phenyl azide and Na2S.
# This followed pseudo first-order kinetics with kobs=2.89×10^−4 s^−1 (FIG. 1b).
# The k2 value calculated from the slope of the plot was 5.13 M^−1s^−1 (measured in HEPES buffer).
# Reactions of the compound of [Chemical Formula 2-6] (5 μM) with Na2S (100-500 μM) in HEPES buffer or HEPES/EtOH (1/1, pH 7.2) were followed by monitoring of the increase in the fluorescence of the compound of [Chemical Formula 2-5] at 525-650 nm using a luminescence spectrometer.
# The kinetic studies in a TP mode were conducted by the same procedure described above except that the TPEF was collected upon excitation at 750 nm.
# In all cases, the plots of −ln(F^∞2−F2) vs. t were linear with good correlations. The kobs values were obtained from the slopes of the plots and the K2 values were obtained from the slopes of the plots of kobs vs. [HS^−]. [HS^−] was calculated by assuming that all of the Na2S was converted to HS^− and H2S, that is, [Na2S]=[H2S]+[HS^−], and using the relationship [H2S]/[HS^−]=[H^+]/Ka=0.794 in HEPES/EtOH (1/1, pH=7.2).
# [5] = test system: rat colon tissue; test: Kinetic measurement of total sulfide in rat colon tissue slices; type: in vivo; conditions: before 5-FU treatment; for total sulfide concentration in colon tissue: probe 2-6; for kobs in colon tissue: tissue labeled with 2-6
# Description: To quantitatively estimate the total sulfide concentration, kinetic experiments were performed in the colon tissue labeled with the compound of [Chemical Formula 2-6].
# Male Sprague-Dawley rats (235-265 g) were divided into two groups (5-FU and control groups). In the 5-FU group, 150 mg/kg of 5-FU (SoloPak Laboratories, Franklin Park, Ill.) were intraperitoneally injected into the rats. The rats of the control group were injected with saline. Each group consisted of 4 rats.
# 8 hours after the intraperitoneal injection, all the rats were sacrificed. Laparotomy was performed after anesthetizing the rats.
# Kinetic experiments in rat colon tissue were performed using four colon slices obtained from four rats. Two sets of experiments were performed for each slice. In each set, TPEF intensities from 8 ROI's/section were collected at depths of 90-150 μm (mucosa) and 151-170 μm (submucosa) in the colon tissue labeled with the compound of [Chemical Formula 2-6] and averaged.
# The rate constant (kobs) was measured from 7 and 3 sections of the mucosa and submucosa tissues, respectively, in order to obtain 112 kobs and 48 kobs values, respectively. The rate constant (kobs) was expressed as mean±SD and p was set to be smaller than 0.05.
smiles,measurement,setting,value
COCCOCCC1(CCOCCOC)c2cc(NC(=O)OCc3ccc(N=[N+]=[N-])cc3)ccc2-c2ccc(-c3nc4ccccc4s3)cc21 [Chemical Formula 2-6],"λ^flmax, maximum emission in cells",[1],450 nm
same,photostability (decay of TPEF intensity),[2],high photostability
same,reactivity toward other biologically relevant species,"[3]; 10 mM GSH, 1 mM Cys, 1 mM 2-ME, RSS, RNS, ROS, Ala, Glu, metal ions",no reactivity
same,increase of relative fluorescence intensity ratio (F2/F1),"[3]; 100 mM Na2S (55.7 mM HS^−), HEPES buffer",110 fold
same,F2/F1 after deazidation,[3]; HEPES buffer,110
same,reactivity toward commercially available GSH,[3]; commercially available GSH,small reactivity
same,reactivity toward purified GSH,[3]; purified GSH,no reactivity
same,"k2, second-order rate constant of reaction with HS^−","[4]; HEPES buffer, slope of kobs vs. [HS^−]",5.13 M⁻¹ s⁻¹
same,"k2, second-order rate constant of reaction with HS^−","[4]; HEPES/EtOH (1/1, pH=7.2), calculated using pKa (H2S)=7.10",5.17 M⁻¹ s⁻¹
same,influence of p-dinitrobenzene (electron acceptor) on kobs,[4]; addition of p-dinitrobenzene,not influenced
same,"kobs, pseudo first-order rate constant","[4]; probe 5 μM + 100 μM Na2S, HEPES buffer, 37° C.",0.000289 s⁻¹
same,total sulfide concentration in colon tissue,[5]; mucosa,7.0 ± 2.7 µM
same,kobs in colon tissue,[5]; mucosa,(2.0±0.8)×10^−5 s^−1
same,total sulfide concentration in colon tissue,[5]; submucosa,3.8 ± 1.4 µM
same,kobs in colon tissue,[5]; submucosa,(1.1±0.5)×10^−5 s^−1
